Assay results published in patent US10550099B2 (FORMA Therapeutics, Inc., priority 2014, dated 2020).
Read-outs that look alike come from different tables or passages of the source.

How the values were obtained:
[1] = target: IDH1-R132C recombinant protein (Homo sapiens (Human), UniProt O75874, R132C); assay: IDH1-R132C enzymatic assay (diaphorase/resazurin readout of NADPH consumption); assay type: biochemical; details: IDH1-R132C enzyme; read-out: Enzyme IDH1 R132C IC50 (Range)
Protocol: (§1) Assays were performed in a 384-well black plate. An aliquot of 250 nL of compound was incubated with 10 μL of 30 nM IDH1-R132H or 10 nM IDH1-R132C recombinant protein in assay buffer (50 mM Tris pH=7.5, 150 mM NaCl, 5 mM MgCl2, 0.1% (w/v) Bovine Serum Albumin, and 0.01% Triton X-100) in each well at 25° C. for 15 minutes. After the plate was centrifuged briefly, an aliquot of 10 μL of 2 mM α-ketoglutarate and 20 μM NADPH solution prepared in assay buffer was then added to each well and the reaction was maintained at 25° C. for 45 minutes. An aliquot of 10 μL of diaphorase solution (0.15 U/mL diaphorase and 30 μM Resazurin in assay buffer) was added to each well. The plate was maintained at 25° C. for 15 minutes and then read on a plate reader with excitation and emission wavelengths at 535 nm and 590 nm, respectively. The IC50 of a given compound was calculated by fitting the dose response curve of inhibition of NADPH consumption at a given concentration with the four parameter logistic equation.

[2] = system: HCT116 isogenic IDH1-R132C mutant cells; assay: Cellular 2-HG assay using HCT116 mutant IDH1 cells (IDH1-R132C), RapidFire mass spectrometry; assay type: cell-based
Protocol: (§2) Example 106—Cellular 2-HG Assay Using HCT116 Mutant IDH1 Cells
(§3) HCT116 isogenic IDH1-R132H and IDH1-R132C mutant cells were cultured in growth media (McCoy's 5A, 10% fetal bovine serum, 1× antibiotic-antimycotic solution and 0.3 mg/mL G418) in 5% CO2 in an incubator at 37° C. To prepare the assay, cells were trypsinized and resuspended in assay media (McCoy's 5A with no L-glutamine, 10% fetal bovine serum, 1× antibiotic-antimycotic solution and 0.3 mg/mL G418). An aliquot of 10,000 cells/100 μL was transferred to each well of a clear 96-well tissue culture plate. The cells were incubated in 5% CO2 at 37° C. in an incubator overnight to allow for proper cell attachment. An aliquot of 50 μL of compound containing assay media were then added to each well and the assay plate was kept in 5% CO2 at 37° C. in an incubator for 24 hours. The media was then removed from each well and 150 μL of a methanol/water mixture (80/20 v/v) was added to each well. The plates were kept at −80° C. freezer overnight to allow for complete cell lysis. An aliquot of 125 μL of extracted supernatant was analyzed by RapidFire high-throughout-mass spectrometry (Agilent) to determine the cellular 2-HG level. The IC50 of a given compound was calculated by fitting the dose response curve of cellular 2-HG inhibition at a given concentration with the four parameter logistic equation.

[3] = target: IDH1-R132H recombinant protein (Homo sapiens (Human), UniProt O75874, R132H); assay: IDH1-R132H enzymatic assay (diaphorase/resazurin readout of NADPH consumption); assay type: biochemical; details: IDH1-R132H enzyme; read-out: Enzyme IDH1 R132H IC50 (Range)
IDH1-R132H recombinant protein, sequence (O75874 whole entry R132H): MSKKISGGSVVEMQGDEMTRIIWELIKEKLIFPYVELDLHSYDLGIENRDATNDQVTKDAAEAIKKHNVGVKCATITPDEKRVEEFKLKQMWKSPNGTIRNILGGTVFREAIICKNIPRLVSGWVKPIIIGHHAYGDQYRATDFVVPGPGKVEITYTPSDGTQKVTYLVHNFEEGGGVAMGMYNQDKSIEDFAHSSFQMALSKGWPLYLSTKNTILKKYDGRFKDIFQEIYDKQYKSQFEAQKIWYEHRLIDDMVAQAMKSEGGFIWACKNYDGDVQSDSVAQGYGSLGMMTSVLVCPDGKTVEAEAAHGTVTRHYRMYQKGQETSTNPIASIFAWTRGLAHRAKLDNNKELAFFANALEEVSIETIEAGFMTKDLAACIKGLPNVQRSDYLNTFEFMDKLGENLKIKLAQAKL
Protocol: as §1

[4] = system: HCT116 isogenic IDH1-R132H mutant cells; assay: Cellular 2-HG assay using HCT116 mutant IDH1 cells (IDH1-R132H), RapidFire mass spectrometry; assay type: cell-based
Protocol: as §2, §3

[5] = Homo sapiens, HCT-116, read-out: HCT116 IDH1 R132C IC50 (Range)
[6] = Homo sapiens, HCT-116, read-out: HCT116 IDH1 R132H IC50 (Range)

IDH1-R132C recombinant protein, sequence (O75874 whole entry R132C): as the sequence (O75874 whole entry R132H) above, with H132C counted along it

IC50 [1] [µM] | IC50 [3] [µM] | IC50 [2, 5] [µM] | IC50 [4, 6] [µM] | SMILES | IC50 ([2]; read-out: HCT116 IDH1 R132C IC50 (Range)) [µM] | IC50 ([4]; read-out: HCT116 IDH1 R132H IC50 (Range)) [µM]
> 10 |  |  |  | COC(=O)C(c1ccnc(N[C@@H](C)c2cc3cc(Cl)ccc3[nH]c2=O)n1)S(C)(=O)=O (stereo partly shown) [I-134] |  | 
1 to 10 | 0.1 to 1 | 0.1 to 1 | 1 to 10 | Cc1[nH]ncc1-c1ccnc(N[C@@H](C)c2cc3cc(Cl)ccc3[nH]c2=O)n1 [I-83] |  | 
0.1 to 1 | 0.1 to 1 | 0.1 to 1 | 0.1 to 1 | CC(C)Cn1nccc1-c1ccnc(N[C@@H](C)c2cc3cc(Cl)ccc3[nH]c2=O)n1 [I-85] |  | 

SMILES | IC50 [1] [µM] | IC50 [3] [µM] | IC50 [2, 5] [µM] | IC50 [4, 6] [µM] | IC50 ([2]; read-out: HCT116 IDH1 R132C IC50 (Range)) [µM] | IC50 ([4]; read-out: HCT116 IDH1 R132H IC50 (Range)) [µM]
COc1nc(N[C@H](C)c2nc3cc(Cl)ccc3[nH]c2=O)ncc1C#N [I-157] | 1 to 10 | 0.1 to 1 |  |  | 0.1 to 1 | < 0.1
